Assay results: patent US20230248845A1, “COMBINATION OF AN ANTIBODY-DRUG CONJUGATE AND AN ANTIBODY-SAPONIN CONJUGATE” (SAPREME TECHNOLOGIES B.V., priority 2020, published 2023)
Like-named read-outs stand apart in the source and are kept apart here.

Legend:
Assay in all cases: Cell viability assay (MTS), targeted protein toxin mediated cell killing
Format in all cases: cell-based, human
[1] = test system: SK-BR-3 cells (HER2^++)
Procedure: (§1) After treatment the cells were incubated for 72 hr at 37° C. before the cell viability was determined by a MTS-assay, performed according to the manufacturer's instruction (CellTiter 96® AQueous One Solution Cell Proliferation Assay, Promega). Briefly, the MTS solution was diluted 20× in DMEM without phenol red (PAN-Biotech GmbH) supplemented with 10% FBS. The cells were washed once with 200 μL/PBS well, after which 100 μL diluted MTS solution was added/well. The plate was incubated for approximately 20-30 minutes at 37° C. Subsequently, the OD at 492 nm was measured on a Thermo Scientific Multiskan FC plate reader (Thermo Scientific). For quantification the background signal of ‘medium only’ wells was subtracted from all other wells, before the cell viability percentage of treated/untreated cells was calculated, by dividing the background corrected signal of treated wells over the background corrected signal of the untreated wells (×100).

[2] = test system: MDA-MB-468 cells (HER2^−); conditions: FIG. 9B
Procedure: as §1

[3] = test system: A431 cells (EGFR^++)
Procedure: as §1

[4] = test system: A2058 cells (EGFR^−); conditions: FIG. 8B
Procedure: as §1

[5] = SO1861 titrated on 10 pM CD71mab-saporin
[6] = SO1861 titrated on 10 pM Pertuzumab-saporin
[7] = SO1861 titrated on 10 pM cetuximab-saporin
[8] = SO1861 titrated on 10 pM matuzumab-dianthin
[9] = SO1861 titrated on 50 pM Pertuzumab-saporin
[10] = SO1861 titrated on 50 pM trastuzumab-saporin
[11] = substance alone, equivalent concentrations, FIG. 2A

In the case of `CC(=O)O[C@H]1[C@H](O[C@@H]2OC[C@@H](O)[C@H](O)[C@H]2O)[C@@H](O)[C@H](O[C@@H]2[C@H](O)[C@@H](O[C@@H]3O[C@@H](C)[C@H](O[C@@H]4OC[C@@H](O)[C@H](O[C@@H]5O[C@H](CO)[C@@H](O)[C@H](O)[C@H]5O)[C@H]4O)[C@@H](O)[C@H]3O)[C@H](OC(=O)[C@]34CCC(C)(C)C[C@H]3C3=CC[C@@H]5[C@@]6(C)CC[C@H](O[C@@H]7O[C@H](C(=O)O)[C@@H](O)[C@H](O[C@@H]8OC[C@@H](O)[C@H](O)[C@H]8O)[C@H]7O[C@@H]7O[C@H](CO)[C@H](O)[C@H](O)[C@H]7O)[C@@](C)(C=O)[C@@H]6CC[C@@]5(C)[C@]3(C)C[C@H]4O)O[C@@H]2C)O[C@@H]1C` [SO1861], the IC50 ([1]; SO1861 titrated on 10 pM CD71-saporin, FIG. 9A, read-out: SO1861 IC50 cell killing) is reported as 200 nM, the IC50 ([1]; SO1861 titrated on 10 pM Pertuzumab-saporin, FIG. 9A, read-out: SO1861 IC50 cell killing) is reported as 200 nM and the IC50 ([1]; SO1861 titrated on 10 pM cetuximab-saporin, FIG. 9A, read-out: SO1861 IC50 cell killing) is reported as 200 nM. The IC50 ([1]; SO1861 titrated on 10 pM matuzumab-dianthin, FIG. 9A, read-out: SO1861 IC50 cell killing) was 200 nM, the IC50 ([1]; SO1861 titrated on 50 pM Pertuzumab-saporin, FIG. 9A, read-out: SO1861 IC50 cell killing) was 200 nM and the IC50 ([1]; SO1861 titrated on 50 pM trastuzumab-saporin, FIG. 9A, read-out: SO1861 IC50 cell killing) was 200 nM. The IC50 [2, 5] was 200 nM, the IC50 [2, 6] was over 1000 nM and the IC50 [2, 7] was 200 nM. It also gave an IC50 [2, 8] of 200 nM, an IC50 [2, 9] of over 1000 nM and an IC50 [2, 10] of over 1000 nM. It also gave an IC50 ([3]; SO1861 titrated on 10 pM CD71-saporin, FIG. 8A, read-out: SO1861 IC50 cell killing) of 200 nM, an IC50 ([3]; SO1861 titrated on 10 pM cetuximab-saporin, FIG. 8A, read-out: SO1861 IC50 cell killing) of 200 nM and an IC50 ([3]; SO1861 titrated on 10 pM matuzumab-dianthin, FIG. 8A, read-out: SO1861 IC50 cell killing) of 200 nM. For the same compound, the IC50 ([3]; SO1861 titrated on 10 pM pertuzumab-saporin, FIG. 8A, read-out: SO1861 IC50 cell killing) was 300 nM, the IC50 ([3]; SO1861 titrated on 50 pM pertuzumab-saporin, FIG. 8A, read-out: SO1861 IC50 cell killing) was 200 nM and the IC50 ([3]; SO1861 titrated on 50 pM trastuzumab, FIG. 8A, read-out: SO1861 IC50 cell killing) was 250 nM. For the same compound, the IC50 [4, 5] was 200 nM, the IC50 [4, 6] was 200 nM and the cell killing activity [4, 7] was “not active”. For the same compound, the cell killing activity [4, 8] was “not active”, the IC50 [4, 9] was 200 nM and the IC50 [4, 10] was 200 nM.

In the case of “matuzumab-SO1861: SO1861-EMCH conjugated via cysteine residues (Cys) to matuzumab, with a DAR 3,3”, the IC50 ([3]; substance titrated on fixed 10 pM EGFdianthin, FIG. 6A, read-out: IC50 cell killing) is reported as 2 nM and the IC50 ([3]; substance titrated on fixed 10 pM cetuximab-saporin, FIG. 6A, read-out: IC50 cell killing) is reported as 2 nM.

“pertuzumab-(Cys-L-SO1861)^4: SO1861-EMCH conjugated via cysteine residues (Cys) to pertuzumab, with a DAR 4” was tested, and the cell killing activity [1, 11] was “could not induce any cell killing activity”, the IC50 ([1]; substance titrated on fixed 50 pM trastuzumab-saporin, FIG. 2A, read-out: IC50 cell killing) was 0.5 nM and the “cell killing activity at higher concentrations” value ([1]; titrated on fixed 50 pM pertuzumab-dianthin, higher concentrations) was “cell killing activity was reduced”.

With “pertuzumab: monoclonal antibody binding human HER2” the cell killing activity ([1]; equivalent concentrations + 50 pM trastuzumab-saporin, FIG. 2A) was “could not induce any cell killing activity” and the cell killing activity [1, 11] was “could not induce any cell killing activity”.
